From PMC12814364 (Journal of the American Chemical Society, 2025)
“Also recorded” adds a separate entry of the source.

Biological target: HBHA110–199 (Mycobacterium tuberculosis, UniProt P9WIP9)
Assay: ITC binding of HS hexadecasaccharides with HBHA110–199
Conditions: Tris buffer pH 7.6, 25 °C, two trials, average ± standard deviation

Sequence of HBHA110–199 (P9WIP9 110-199): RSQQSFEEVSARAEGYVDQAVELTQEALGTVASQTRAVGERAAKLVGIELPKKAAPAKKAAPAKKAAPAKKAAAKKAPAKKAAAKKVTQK

| Structure (SMILES) | dissociation constant, KD |
| --- | --- |
| CC(=O)N[C@H]1[C@@H](O[C@H]2[C@H](O)[C@@H](O)[C@H]3OC[C@@H]2O3)O[C@H](COS(=O)(=O)O)[C@@H](O[C@@H]2O[C@@H](C(=O)O)[C@@H](O[C@H]3O[C@H](COS(=O)(=O)O)[C@@H](O[C@@H]4O[C@@H](C(=O)O)[C@@H](O[C@H]5O[C@H](COS(=O)(=O)O)[C@@H](O[C@@H]6O[C@@H](C(=O)O)[C@@H](O[C@H]7O[C@H](COS(=O)(=O)O)[C@@H](O[C@@H]8O[C@@H](C(=O)O)[C@@H](O[C@H]9O[C@H](COS(=O)(=O)O)[C@@H](O[C@@H]%10O[C@@H](C(=O)O)[C@@H](O[C@H]%11O[C@H](COS(=O)(=O)O)[C@@H](O[C@@H]%12O[C@@H](C(=O)O)[C@@H](O[C@H]%13O[C@H](COS(=O)(=O)O)[C@@H](O[C@@H]%14O[C@@H](C(=O)O)[C@@H](O[C@H]%15O[C@H](COS(=O)(=O)O)[C@@H](O)[C@H](O)[C@H]%15NC(C)=O)[C@H](O)[C@H]%14O)[C@H](O)[C@H]%13NC(C)=O)[C@H](O)[C@H]%12O)[C@H](O)[C@H]%11NC(C)=O)[C@H](O)[C@H]%10O)[C@H](O)[C@H]9NC(C)=O)[C@H](O)[C@H]8O)[C@H](O)[C@H]7NC(C)=O)[C@H](O)[C@H]6O)[C@H](O)[C@H]5NC(C)=O)[C@H](O)[C@H]4O)[C@H](O)[C@H]3NC(C)=O)[C@H](O)[C@H]2O)[C@@H]1O [compound 31] | no detectable binding; also recorded: no binding detected |
| O=C(O)[C@@H]1O[C@@H](O[C@H]2[C@H](O)[C@@H](NS(=O)(=O)O)[C@@H](O[C@H]3[C@H](O)[C@@H](OS(=O)(=O)O)[C@H]4OC[C@@H]3O4)O[C@@H]2CO)[C@H](OS(=O)(=O)O)[C@@H](O)[C@@H]1O[C@H]1O[C@H](CO)[C@@H](O[C@@H]2O[C@@H](C(=O)O)[C@@H](O[C@H]3O[C@H](CO)[C@@H](O[C@@H]4O[C@@H](C(=O)O)[C@@H](O[C@H]5O[C@H](CO)[C@@H](O[C@@H]6O[C@@H](C(=O)O)[C@@H](O[C@H]7O[C@H](CO)[C@@H](O[C@@H]8O[C@@H](C(=O)O)[C@@H](O[C@H]9O[C@H](CO)[C@@H](O[C@@H]%10O[C@@H](C(=O)O)[C@@H](O[C@H]%11O[C@H](CO)[C@@H](O[C@@H]%12O[C@@H](C(=O)O)[C@@H](O[C@H]%13O[C@H](CO)[C@@H](O)[C@H](O)[C@H]%13NS(=O)(=O)O)[C@H](O)[C@H]%12OS(=O)(=O)O)[C@H](O)[C@H]%11NS(=O)(=O)O)[C@H](O)[C@H]%10OS(=O)(=O)O)[C@H](O)[C@H]9NS(=O)(=O)O)[C@H](O)[C@H]8OS(=O)(=O)O)[C@H](O)[C@H]7NS(=O)(=O)O)[C@H](O)[C@H]6OS(=O)(=O)O)[C@H](O)[C@H]5NS(=O)(=O)O)[C@H](O)[C@H]4OS(=O)(=O)O)[C@H](O)[C@H]3NS(=O)(=O)O)[C@H](O)[C@H]2OS(=O)(=O)O)[C@H](O)[C@H]1NS(=O)(=O)O [compound 27] | no detectable binding; also recorded: no binding detected |
